Data as given in patent publication EP1176134A1, “LIGANDS OF NUCLEAR RECEPTORS PPAR'S” (Nuclear Receptor Research Limited, priority 1999, dated 2000).

What was measured:
[1] = tested on: PPARγ; assay: transfer (reporter) gene activity assay in transfected COS-1 cells, PPARγ; assay type: cell-based; conditions: luciferase reporter, 20 hours
Method: Transfection was performed by a standard procedure using a LipofectAMINE reagent from Life Technologies. A 35 mm Petri dish containing 1 x 10^5 cells dispersed in 2 ml of Dulbecco's minimum medium (DMEM) containing 10% fetal bovine serum was incubated in a CO2 incubator for 17 hours. Then, the medium was removed and cells adhered to the Petri dish were washed with phosphate buffered physiological saline (PBS), after which transfection was performed using a LipofectAMINE reagent. That is, […] of a minimum serum medium OptiMEM (Life Technologies) containing […] of a plasmid bearing the luciferase gene whose expression is controlled by PPAR-responsive elements, […] of a PPAR expression plasmid and 2 mg of a plasmid bearing the β-galactosidase gene for monitoring transfection efficiency was preliminarily mixed with […] of OptiMEM containing 50 ml of LipofectAMINE dissolved therein, and the mixed solution was maintained at room temperature for 15 minutes. A Petri dish containing a mixture of 100 ml of this mixed solution and 400 ml of OptiMEM was incubated in a CO2 incubator at 37°C for 3 hours. The transfection medium was aspirated off from the Petri dish, which was supplied with DMEM containing 10% serum treated with activated carbon and a test compound and incubated at 37°C for 20 hours. […] The medium also contains a solvent for test compounds dimethyl sulfoxide (final concentration 0.1%).
(§1) After the medium in the Petri dish was aspirated off, […] of a lysing solution for cultured cells (25 mM Tris phosphate buffer (pH 7.8), 2 mM 1,2-diaminocyclo-hexane-N, N,N',N'-tetraacetate, 10% glycerol, 1% Triton X-100) was added and cells were scraped with rubber policeman. Cells were completely disrupted by freezing and thawing and then centrifuged at 4°C (15,000 rpm, 2 min), and the supernatants were used as test samples. […] The β-galactosidase for monitoring transfection efficiency was measured for fluorescence in a luminometer using Luminescent β-galactosidase detection kit II (Clontech). […]

[2] = tested on: rat hypertension model; assay: prevention of aneurysms in DOCA/saline one-kidney rat hypertension model; assay type: in vivo, male Wistar rats
Method: Compounds of the present invention show the effect of preventing periarteritis nodosa and aneurysms. In order to evaluate the effect of preventing aneurysms, a quantitatively assayable rat hypertension model was used so that aneurysms formed in mesenteric arteries were measured and statistically processed to determine the effect. The membrane was removed with forceps from isolated mesenterium and the remaining arterioles were fixed with formalin and then fat-stained. The number of arterioles and the number of aneurysms were counted in triplicate to calculate the average number of aneurysms per arteriole. As a hypertension model, rats with one kidney extracted to decrease renal function were given 0.9% saline as drinking water having a slightly higher osmosis than plasma and subcutaneously received 10 mg/kg of a mineral corticoid deoxycorticosteron acetate (DOCA) weekly. The left kidney was extracted from male Wistar rats (12 animals) under anesthetization. The rats deprived of kidney were randomly divided into two groups (n = 6) after a period of recovery for a week. One of the two groups was a control group and the other received compound 1. […] The experimental period was 7 weeks, during which feed intake, drinking water intake, urine volume, body weight and blood pressure were measured every 3 days from the start of experiments. […]

[3] = tested on: streptozotocin-induced diabetes; assay: streptozotocin-induced diabetes in rats; assay type: in vivo, male Wistar rats; conditions: 100 mg/kg orally once daily; for Body weight / Drinking water intake / Feed intake / Urinary sugar excretion / Urine volume: n=8
Method: Streptozotocin (50 mg/kg) was injected into the tail vein of male Wistar rats weighing about 250 g to prepare an insulin deficiency diabetes model. Compound 1 suspended in a gum arabic solution was orally administered at 100 mg/kg once daily, starting immediately after administration of streptozotocin. The animals were housed in a urine-collecting cage for 24 hours on days 7 and 14 to collect urine for 24 hours. […] However, weight gain was 80 g/week in the healthy group in contrast with only 18 g/week in the diabetes control group. […] This means that administration of compound 1 improved metabolism to greatly reduce urinary sugar excretion.

[4] = tested on: NOD mice; assay: prevention of onset of type I diabetes in NOD mice; assay type: in vivo, female NOD mice; conditions: 10 animals
Method: (§2) Each group consists of 10 animals.
The mice were bred for 24 weeks, during which they were tested for urinary sugar excretion using an urinary sugar detection tape on Monday and Friday (Fig. 3).

[5] = tested on: Ehrlich ascites tumor cells; assay: hyperlipidemia (cachexia marker) in Ehrlich ascites tumor bearing mice; assay type: in vivo, male ddY-strain mice; conditions: for Body weight / Serum neutral Serum neutral fat: day 8, mean±SD, n=8
Description: In these experiments, serum neutral fat was selected as an indication of cachexia to serve as an auxiliary marker for knowing dynamics of TNFα that is difficult to quantitize, because it is difficult to exactly measure blood TNFα and it is easier to measure serum neutral fat than blood TNFα. Forty male ddY-strain mice at 5 weeks of age were randomly divided into 5 groups (n = 8), among which 4 groups were intraperitoneally implanted with 2 x 10^6 Ehrlich ascites tumor cells. The group implanted with no tumor cells was a healthy control group. From 24 hours after implantation of tumor cells, 3 groups intraperitoneally received 100-400 mg/kg of compound 1, while the other group received a solvent 0.1% Tween 80 (0.2 ml) alone free from compound 1. On day 8 after implantation of tumor cells, blood was collected from the heart of tumor bearing mice to assay neutral fat in separated serum and detect blood TNFα by immunoelectrophoresis.

[6] = tested on: serum lipid; conditions: cited from earlier work
[7] = tested on: DOCA hypertension rats; conditions: orally administered to DOCA hypertension rats; cited from earlier work
[8] = tested on: hereditary obese and diabetic mice C57BL/ksj db/db; assay: polydipsia/polyuria and urinary sugar excretion in db/db mice fed compound in diet; assay type: in vivo
Method: Ten male db/db mice at 30-32 weeks of age were randomly divided into two groups (n = 5), ie, a control group and compound 17 group. The animals were allowed free access to diet and drinking water. The diet was mouse II rat standard food CE-2 powder from Clea Japan, which was pelletized after a solution of compound 17 in acetone was applied and acetone was evaporated by air-drying. Compound 17 was added in an amount of 0.1% of the diet. A control diet was also pelletized after the same amount of acetone was applied.
Both groups received the control diet for first 7 days to test feed intake, urine volume, urinary sugar level and urinary sugar excretion level. During the following 5 days, the treatment group received the diet containing 0.1% compound 17. The treatment group was bred with the control diet again for further 4 days and then bred with the diet containing 0.1% compound 17 again for 5 days on […]. As db/db mice individually bred in metabolic cages show wide variation in feed and drinking water intakes, 5 animals were housed in a rat metabolic cage and the values obtained in each cage were divided by 5 and shown in Fig. 1. […] Urinary sugar excretion level is 50% or less as compared with the control period even 24 hours after administration is stopped, showing that compound 17 has a carry-over effect.

[9] = tested on: db/db mice; assay: blood glucose and urinary sugar excretion in db/db mice; assay type: in vivo; conditions: 60 mg/kg orally once daily, Fig. 2
Method: Blood was collected from the tail vein of ten db/db mice at 12 weeks of age 2 days before the start of experiments, and the animals were divided into two groups each having an average blood glucose level of 720-740 mg/dl. One group was a control group, while the other group orally received compound 25 at 60 mg/kg once daily. […] SA solid diamond denotes the control group, solid triangle denotes the: group treated with compound 1 at 25 mg/kg, open square denotes the: group treated with compound 1 at 50 mg/kg, and cross denotes the: group treated with compound 25 at 50 mg mg/kg. Each group consists of 10 animals.
Blood was collected from the tail vein of ten db/db mice at 12 weeks of age, and the animals were divided into two groups, ie, a control group and a compound 25 group, each having an average blood glucose level of about 700 mg/dl and housed in urine-collecting cages. A small amount of blood was collected from the tail vein on days 1, 2, 3, 5, 7 and 10 from the start of experiments to determine blood glucose. Urine was collected for 24 hours at the same intervals to determine urinary sugar excretion level by the oxygen method.

[10] = tested on: immobilized PPARγ receptor; assay: Surface Plasmon Resonance sensor (BIAcore) binding test; conditions: BIAcore sensorgram, Fig. 4
Description: as §2
A Surface Plasmon Resonance sensor (BIAcore column) was used to examine whether or not compounds of the present invention bind immobilized PPARγ receptor.

[11] = tested on: PPARα; assay: transfer (reporter) gene activity assay in transfected COS-1 cells, PPARα; assay type: cell-based; conditions: luciferase reporter, 20 hours
Method: Transfection was performed by a standard procedure using a LipofectAMINE reagent from Life Technologies. A 35 mm Petri dish containing 1 x 10^5 cells dispersed in 2 ml of Dulbecco's minimum medium (DMEM) containing 10% fetal bovine serum was incubated in a CO2 incubator for 17 hours. Then, the medium was removed and cells adhered to the Petri dish were washed with phosphate buffered physiological saline (PBS), after which transfection was performed using a LipofectAMINE reagent. […]
as §1, with “policeman.” for “policeman. Cells were completely disrupted by freezing and thawing and then centrifuged at 4°C (15,000 rpm, 2 min), and the supernatants were used as test samples.”

[12] = 50 mg/kg intraperitoneally twice weekly
[13] = Dose 100 mg/kg intraperitoneally
[14] = Dose 200 mg/kg intraperitoneally
[15] = Dose 400 mg/kg intraperitoneally
[16] = groups treated with 100-400 mg/kg
[17] = diet containing 0.1% compound, Fig. 1

Structure (SMILES): C/C(=C\Cc1c(O)c(Cl)c(C)c(C=O)c1O)CC/C=C(\C)C1CC(=O)C(C)(C)O1 (centres unmarked) [Compound 1, Ascofuranone]
- Activation of receptors PPARγ [1]: +++ (Activation peak appears at 10^-6-10^-5M.)
- effect of suppressing pressure rise (blood pressure) ([2]; orally 100 mg/kg from week 3, compared with control group): any significant effect of suppressing pressure rise was not observed
- aneurysms (mean ± SE) per mesenteric artery ([2]; orally 100 mg/kg from week 3, dissected at week 7, n = 6): 0.51 ± 0.37 aneurysms per mesenteric arter
- weight gain [3]: 30 g/week
- Body weight ([3]; Day 7): 307.7±4.8 g/rat
- Drinking water intake ([3]; Day 7): 99.9±13.0 ml/rat/day
- Feed intake ([3]; Day 7): 32.9±1.9 g/rat
- Urinary sugar excretion ([3]; Day 7): 5.39±0.55 g/rat/day
- Urine volume ([3]; Day 7): 74.6±6.4 ml/rat/day
- Body weight ([3]; Day 14): 318.3±6.8 g/rat
- Drinking water intake ([3]; Day 14): 106.9±18.0 ml/rat/day
- Feed intake ([3]; Day 14): 32.6±2.9 g/rat
- Urinary sugar excretion ([3]; Day 14): 5.78±1.09 g/rat/day
- Urine volume ([3]; Day 14): 79.7±12.5 ml/rat/day
- drinking water intake as compared with the diabetes control group ([3]; day 7): 41.4%
- feed intake decrease as compared with the diabetes control group ([3]; day 7): 14.3%
- drinking water intake as compared with the diabetes control group ([3]; day 14): 43.6%
- feed intake decrease as compared with the diabetes control group ([3]; day 14): 23.3%
- incidence of type I diabetes at week 24 ([4]; 25 mg/kg intraperitoneally twice weekly): 30%
- incidence of type I diabetes at week 24 [4, 12]: 10%
- Body weight [5, 13]: 38.0±1.0 g/mouse
- Serum neutral Serum neutral fat [5, 13]: 258.2 ± 53.2 mg/dL
- Body weight [5, 14]: 36.7±0.7 g/mouse
- Serum neutral Serum neutral fat [5, 14]: 185.1 ± 26.2 mg/dL
- Body weight [5, 15]: 31.3±1.1 g/mouse
- Serum neutral Serum neutral fat [5, 15]: 99.1 ± 18.3 mg/dL
- blood TNFα [5, 16]: downward tendency
- blood glucose level [5, 16]: significant increase
- increase of serum neutral fat [5, 16]: dose-dependently suppressed
- toxicity ([6]; orally administered to rodents): very low toxicity
- effect on serum lipid ([6]; orally administered, rats bred with a standard diet or a high-fat diet): lowering serum lipid
- indications of cardiovascular diseases [7]: improves indications of cardiovascular diseases
- pressure rise [7]: does not suppress pressure rise

Structure (SMILES): COc1c(C=O)c(C)c(Cl)c(O)c1C/C=C(\C)CC/C=C(\C)C1CC(=O)C(C)(C)O1 (centres unmarked) [Compound 7, 2-O-methyl AF]
- Activation of receptors PPARγ [1]: +++ (Activation peak appears at 10^-6-10^-5M.)

Structure (SMILES): COc1c(Cl)c(C)c(C=O)c(O)c1C/C=C(C)/C=C/[C@@]1(C)[C@H](C)CCC(=O)[C@@H]1C [Compound 17, 4-O-MeAS]
- Urinary sugar excretion level as compared with the control period ([8]; 24 hours after administration is stopped, 0.1% in diet): ≤ 50%
- Urine volume [8, 17]: sharply decrease
- urinary sugar excretion level [8, 17]: sharply decrease
- urinary sugar level [8, 17]: sharply decrease

Structure (SMILES): COc1c(C=O)c(C)c(Cl)c(O)c1C/C=C(C)/C=C/C1(C)C(C)CCC(=O)C1C (centres unmarked) [Compound 21, 2-O-methylascochlorin]
- Activation of receptors PPARγ [1]: ++ (Activation peak appears at 10^-5-10^-4M.)

Structure (SMILES): CC(/C=C/C1(C)C(C)CCC(=O)C1C)=C\Cc1c(O)c(C=O)c(C)c(Cl)c1OCC(=O)O (centres unmarked) [Compound 25]
- Activation of receptors PPARγ [1]: +++ (Activation peak appears at 10^-6-10^-5M.)
- blood glucose loss ([9]; day 7): over 30%
- urinary sugar ([9]; day following the start of administration): decreased to a half
- blood glucose ([9]; from day 3 of administration): significantly decreased
- urinary sugar excretion level loss ([9]; on and after day 3): over 90%
- incidence of type I diabetes at week 24 [4, 12]: 10%

Structure (SMILES): CC(/C=C/C1(C)C(C)CCC(=O)C1C)=C\Cc1c(O)c(C=O)c(C)c(Cl)c1OC(=O)c1cccnc1 (centres unmarked) [Compound 26]
- Activation of receptors PPARγ [1]: ++ (Activation peak appears at 10^-5-10^-4M.)

Structure (SMILES): COc1c(C=O)c(C)c(Cl)c(OCC(=O)O)c1C/C=C(C)/C=C/C1(C)C(C)CCC(=O)C1C (centres unmarked) [Compound 27, 4-O-Carboxymethyl-2-O-methylascochlorin]
- Activation of receptors PPARγ [1]: ++ (Activation peak appears at 10^-5-10^-4M.)
- binding to immobilized PPARγ receptor (SPR signal) [10]: clearly generates a signal

Structure (SMILES): CC(/C=C/C1(C)C(C)CCC(=O)C1C)=C\Cc1c(O)c(C=O)c(C)c(Cl)c1OC(=O)CCCC(=O)O (centres unmarked) [Compound 29, 4-O-(4-Carboxybutanoyl)ascochlorin]
- Activation of receptors PPARγ [1]: +++ (Activation peak appears at 10^-6-10^-5M.)

Structure (SMILES): C/C(=C\Cc1c(O)c(Cl)c(C)c(C=O)c1O)CC/C=C(\C)C1=CC(=O)C(C)(C)O1 [Dehydroascofuranone]
- Activation of receptors PPARα [11]: ++ (Activation peak appears at 10^-5-10^-4M.)
